Values after ≈ are worked out from the molar mass of the structure shown. Active and inactive are the calls of the source. The rule behind the calls is not given here.
How the values were obtained:
P388 = assay: Cytotoxicity against mouse P388 cells; type: functional, cell-based
[1] = Cytotoxicity against […] BSC cells at 60 ug/disk; type: cell-based
Candida albicans = assay: Antimicrobial activity against Candida albicans at 60 ug/disk; type: functional, organism-based

SMILES: C[C@@H]1C[C@@]23CC[C@@H]4C(C)(C)CC[C@H](O)[C@@]4(C)[C@@H]2CC(=O)[C@@H]1C3
- IC50 (P388): 15 µg/mL (≈ 49.3 µM)

SMILES: C=C[C@@]1(C)C=C2CC[C@@H]3C(C)(C)CC[C@H](O)[C@@]3(C)[C@@H]2CC1
- Activity [1]: Not Active
- Activity (Candida albicans): inactive
- IC50 (P388): > 25 µg/mL

— ChEMBL document CHEMBL1146411, “1-Hydroxyditerpenes from Two New Zealand Liverworts, Paraschistochila pinnatifolia and Trichocolea mollissima” (J Nat Prod, 1997)
